Experimental data as given in ChEMBL document CHEMBL2029330 (Bioorg Med Chem Lett, 2012).
Converted amounts (≈) assume the structure as drawn.

Columns and labels:
[1] = Aqueous solubility of the compound at pH 7.4; type: physicochemical; conditions: aqueous medium
in vitro = conditions: human, hepatocytes
[2] = Oral bioavailability in rat; type: ADME, organism-based; conditions: in vivo
[3] = Oral bioavailability in dog; type: ADME, organism-based, Canis lupus familiaris; conditions: in vivo
[4] = Volume of distribution at steady state in rat; type: ADME, organism-based; conditions: in vivo, read-out: Vdss
[5] = Volume of distribution at steady state in dog; type: ADME, organism-based, Canis lupus familiaris; conditions: in vivo, read-out: Vdss
[6] = Clearance in dog; type: ADME, organism-based, Canis lupus familiaris; conditions: in vivo
[7] = Clearance in rat; type: ADME, organism-based; conditions: in vivo
[8] = Half life in dog; type: ADME, organism-based, Canis lupus familiaris; conditions: in vivo
[9] = Half life in rat; type: ADME, organism-based; conditions: in vivo
[10] = Dissociation constant, pKa of the compound; type: physicochemical
[11] = Apparent permeability of the compound from basolateral to apical side across human Caco2 cells at 10 uM; type: ADME, cell-based; conditions: Caco-2
[12] = Lipophilicity, log D of the compound at pH 7.4; type: physicochemical; conditions: buffer
[13] = Apparent permeability of the compound from apical to basolateral side across human Caco2 cells at 10 uM; type: ADME, cell-based; conditions: Caco-2

SMILES: Cc1ccc(NC(=O)c2ccnc(N3CCOCC3)c2)cc1-n1cnc2ccc(N3CCN(C)CC3)cc2c1=O
- solubility [1]: 300 µM (≈ 162 µg/mL)
- hepatocyte CLint (in vitro): 17 µL/min/1e6 cells

SMILES: Cc1ccc(NC(=O)c2ccnc(N3CCOCC3)c2)cc1-n1c(C)nc2ccc(N3CCN(C)CC3)cc2c1=O
- solubility [1]: 300 µM (≈ 166 µg/mL)

SMILES: Cc1ccc(NC(=O)c2cccc(N3CCOCC3)c2)cc1-n1cnc2ccc(N3CCN(C)CC3)cc2c1=O
- solubility [1]: 300 µM (≈ 162 µg/mL)

SMILES: Cc1ccc(NC(=O)c2ccccc2)cc1-n1cnc2ccc(N3CCN(C)CC3)cc2c1=O
- hepatocyte CLint (in vitro): 6 µL/min/1e6 cells

SMILES: COc1ccccc1C(=O)Nc1ccc(C)c(-n2cnc3ccc(N4CCN(C)CC4)cc3c2=O)c1
- hepatocyte CLint (in vitro): 5 µL/min/1e6 cells

SMILES: Cc1ccc(NC(=O)c2cccc(C#N)c2)cc1-n1cnc2ccc(N3CCN(C)CC3)cc2c1=O
- hepatocyte CLint (in vitro): < 3 µL/min/1e6 cells

SMILES: Cc1ccc(NC(=O)c2ccc(C#N)cc2)cc1-n1cnc2ccc(N3CCN(C)CC3)cc2c1=O
- bioavailability [2]: 29%
- bioavailability [3]: 53%
- Vd [4]: 4.8 L/kg
- Vd [5]: 7.8 L/kg

SMILES: Cc1ccc(NC(=O)c2ccccc2F)cc1-n1cnc2ccc(N3CCN(C)CC3)cc2c1=O
- hepatocyte CLint (in vitro): 7 µL/min/1e6 cells

SMILES: Cc1ccc(NC(=O)c2cccc(F)c2)cc1-n1cnc2ccc(N3CCN(C)CC3)cc2c1=O
- hepatocyte CLint (in vitro): 11 µL/min/1e6 cells

SMILES: Cc1ccc(NC(=O)c2ccno2)cc1-n1cnc2ccc(N3CCN(C)CC3)cc2c1=O
- hepatocyte CLint (in vitro): 5 µL/min/1e6 cells

SMILES: Cc1ccc(NC(=O)c2cscn2)cc1-n1cnc2ccc(N3CCN(C)CC3)cc2c1=O
- hepatocyte CLint (in vitro): 7 µL/min/1e6 cells

SMILES: Cc1ccc(NC(=O)c2cncs2)cc1-n1cnc2ccc(N3CCN(C)CC3)cc2c1=O
- hepatocyte CLint (in vitro): < 3 µL/min/1e6 cells

SMILES: Cc1ccc(C(=O)Nc2ccon2)cc1-n1cnc2ccc(N3CCN(C)CC3)cc2c1=O
- bioavailability [2]: 41%
- bioavailability [3]: 20%
- clearance [6]: 19 mL/min/kg
- clearance [7]: 17 mL/min/kg
- half-life [8]: 4 h
- Vd [4]: 2.5 L/kg
- half-life [9]: 1.7 h
- Vd [5]: 3.7 L/kg

SMILES: Cc1ccc(C(=O)NC2CC2)cc1-n1cnc2ccc(N3CCN(C)CC3)cc2c1=O [AZD-6703]
- pKa [10]: 7.6
- bioavailability [2]: 49%
- bioavailability [3]: 68%
- clearance [6]: 24 mL/min/kg
- Papp B→A at 10 µM [11]: 11 ×10⁻⁶ cm/s
- hepatocyte CLint (in vitro): 2 µL/min/1e6 cells
- clearance [7]: 26 mL/min/kg
- logD [12]: 1.6
- half-life [8]: 1.7 h
- Vd [4]: 1.9 L/kg
- Papp A→B at 10 µM [13]: 6 ×10⁻⁶ cm/s
- Vd [5]: 3.3 L/kg
